Values of other authors, collected in patent publication US11179338B1, “Powder for oral suspension containing tadalafil” (AUSON PHARMACEUTICALS INC., priority 2021, dated 2021).

- solubility in water: insoluble
SMILES: CN1CC(=O)N2[C@H](c3ccc4c(c3)OCO4)c3[nH]c4ccccc4c3C[C@@H]2C1=O [Tadalafil, pyrazino [1′,2′:1,6]pyrido[3,4-b]indole-1,4-dione, 6-(1,3-benzodioxol-5-yl) 2,3,6,7,12,12a-hexahydro-2-methyl-, (6R,12aR)-]
